Results on nine compounds are retold here after US11578055B2, “Triazacyclododecansulfonamide (“TCD”)-based protein secretion inhibitors” (KEZAR LIFE SCIENCES, priority 2018, dated 2023).

Where only a bound is given, the exact number is not on record here.

The subject of data set [1] is HER3 signal sequence plus 4 amino acids fused to Gaussia Luciferase (HER3-ss+4aa/Gaussia Luciferase). Nature of the data set: Dox Induced HER3-ss-Gluc Assay. Type of data set: cell-based. The conditions noted are these: 24 hr, doxycycline induced, Flp-In 293 T-REx cells; read-out: 24 hr Dox Inducible Her3(ss + 4) Gluc 293FRT/TO: Mean 1050. The text has this:
FIp-In 293 T-REx™ cells were transfected with pcDNA™5/FRT/TO plasmid inserted with cDNA encoding Gaussia Luciferase fused to the 3′ end of cDNA encoding HER3 signal sequence plus 4 amino acids (N-[…]-C) (SEQ ID NO: 2). Transfected cells were selected for resistance to the selectable markers Hygromycin and Blasticidin to create a stable cell line that contained the HER3-ss+4aa/Gaussia Luciferase cDNA insert whose expression was regulated under the T-REx™ system. The day before assay, cells were trypsinized and plated in 384-well tissue culture plates. The next day, compound dilutions in DMSO/media containing doxycycline were added to the wells and incubated at 37° C., 5% CO2.
For chemical structures that include one or more stereoisomers, but are illustrated without indicating stereochemistry, the assay data refers to a mixture of stereoisomers.

Data set [2] in a line: In Vitro Microsome Stability Assay (mouse). Type of data set: in vitro ADME. The conditions noted are these: mouse liver microsomes, 30 min w/ NADPH. In outline: (§1)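 The value reported is the percentage of parent left after 30 min, calculated from analyte/IS peak-area ratios relative to time zero by LC-MS/MS. Incubations ran at 37° C in 0.1 M potassium phosphate with NADPH and microsomes (stock 20 mg/mL), with compound added from a 0.25 mM DMSO stock. Acetonitrile containing IS stopped the reactions.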
A general note: Microsomes from liver hold many membrane-bound enzymes, among them those of drug oxidation.

Data set [3] concerns full length IL-2 (amino acids 1-153) fused to Gaussia Luciferase. The data set is described as follows: Dox Induced IL2-FL-Gluc Assay. Type of data set: cell-based. The conditions noted are these: 24 hr, Dox inducible, 293FRT/TO cells; read-out: 24 hr Dox Inducible IL2FLGluc 293FRT/TO: Mean IC50. Summed up: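 Flp-In 293 T-REx stable line expressing full-length IL-2 (aa 1-153) with C-terminal Gaussia luciferase fusion under doxycycline-inducible control. Cells plated the day before; compound dilutions added in DMSO/media containing doxycycline, incubated at 37° C, 5% CO2.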

Data set [4] deals with PD1 signal sequence plus 10 amino acids fused to Gaussia Luciferase (PD1-ss+10aa/Gaussia Luciferase). Nature of the data set: Dox Induced PD1-ss-Gluc Assay. Type of data set: cell-based. Particulars: 24 hr, Dox inducible, 293FRT/TO cells; read-out: 24 hr Dox Inducible PD1ssGluc 293FRT/TO: Mean IC50. Summed up:
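Stable Flp-In 293 T-REx line expressing the fusion under tetracycline-inducible control, plated the day before assay. Compound dilutions added with doxycycline and incubated at 37 °C, 5% CO2; unspecified stereocentres mean data refer to stereoisomer mixtures.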

The nature of data set [5]: In Vitro Microsome Stability Assay (human). Type of data set: in vitro ADME. The conditions noted are these: human liver microsomes, 30 min w/ NADPH. In outline:
as §1

Data set [6] in a line: In Vitro Microsome Stability Assay (monkey). Type of data set: in vitro ADME. Particulars: monkey liver microsomes, 30 min w/ NADPH. In outline:
as §1

The nature of data set [7]: In Vitro Microsome Stability Assay (rat). Type of data set: in vitro ADME. Particulars: rat liver microsomes, 30 min w/ NADPH. In outline: as §1
Data set [8] deals with multiple myeloma cell line U266B1. Nature of the data set: U266 Cell Viability Assay. Particulars: Homo sapiens, U-266; 48 hr, U266, Celltiter-Glo. Type of data set: cell-based, human. In outline: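 U266B1 myeloma cells in RPMI 1640 with 10% FBS were treated with compound dilutions for 48 h at 37° C, 5% CO2. Viability was read as CellTiter-Glo luminescence. Data for structures drawn without stereochemistry refer to stereoisomer mixtures.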
For orientation: ATP-based viability assays read luminescence as a measure of living cells.

For data set [9], the system named is multiple myeloma cell line NCl-H929. The data set is described as follows: H929 Cell Viability Assay. Type of data set: cell-based, human. Particulars: Homo sapiens, NCI-H929, 48 h, H929, Celltiter-Glo. Summed up: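 NCI-H929 myeloma cells in RPMI 1640 with 10% FBS were treated with compound dilutions for 48 h at 37 °C, and viability was then read by CellTiter-Glo luminescence. Compounds drawn without stereochemistry were tested as stereoisomer mixtures.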

Data set [10] concerns full length TNFα (amino acids 1-233) fused to Gaussia Luciferase. The data set is described as follows: Dox Induced TNFα-FL-Gluc Assay. The conditions noted are these: 24 hr, Dox inducible, 293FRT/TO cells; read-out: 24 hr Dox Inducible TNFaFLGluc 293FRT/TO: Mean IC50. Type of data set: cell-based. Summed up: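 Stable Flp-In 293 T-REx line expressing doxycycline-inducible full-length TNFα fused to Gaussia luciferase; cells plated the day before, then treated with compound dilutions in doxycycline-containing medium at 37° C, 5% CO2. Unspecified stereocentres mean stereoisomer mixtures were tested.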

Regarding `COc1cc(F)cc(N2CCN(S(=O)(=O)N3CCCN(CC4CCCCC4)CCCN(S(=O)(=O)c4ccc(N(C)C)cc4)C[C@H](C)C3)C[C@@H]2C)c1` [A194], the IC50 was 303 nM in data set [1], 402 nM in data set [3], 261 nM in [4] and over 25000 nM in [10]. For the same compound, the “Liver Microsome Stability-% Left after 30 min w/ NADPH (%) Mouse” value (shortened to “Liver Microsome Stability-% Left … (%) Mouse”) in [2] is reported as 68.5%. Also, the “Liver Microsome Stability-% Left after 30 min w/ NADPH (%) Human” value (“Liver Microsome Stability-% Left … (%) Human” below) in data set [5] came out at 63.6%. Besides, in data set [6], the “Liver Microsome Stability-% Left after 30 min w/ NADPH (%) Monkey” value (from here on “Liver Microsome Stability-% Left … (%) Monkey”) turned out to be 65.0%. Also, in data set [7], the “Liver Microsome Stability-% Left after 30 min w/ NADPH (%) Rat” value (“Liver Microsome Stability-% Left … (%) Rat” below) is reported as 59.2%. For the same compound, the EC50 in data set [8] and in data set [9] was over 25000 nM in each case.

With `C[C@H]1CN(S(=O)(=O)c2ccc(N(C)C)cc2)CCCN(Cc2ccon2)CCCN(S(=O)(=O)N2CCc3cc(Cl)ccc3C2)C1` [A124, 4-{[(3S)-5-[(6-chloro-1,2,3,4-tetrahydroisoquinolin-2-yl)sulfonyl]-3-methyl-9-[(1,2-oxazol-3-yl)methyl]-1,5,9-triazacyclododecan-1-yl]sulfonyl}-N,N-dimethylaniline], the IC50 in data set [1] is 913 nM; in data set [3] it was 802 nM; in [4], 607 nM; in [10], over 25000 nM. In [2], the “Liver Microsome Stability-% Left … (%) Mouse” value is recorded as 1.01%. In addition, the “Liver Microsome Stability-% Left … (%) Human” value in data set [5] was found to be 18.9%. Besides, in data set [6], the “Liver Microsome Stability-% Left … (%) Monkey” value turned out to be 1.91%. Moreover, the “Liver Microsome Stability-% Left … (%) Rat” value in [7] was determined as 1.25%. The EC50 in data set [8] and in data set [9] was over 25000 nM throughout.

Consider `COc1ccc(N2CCN(S(=O)(=O)N3CCCN(CC4CCCCC4)CCCN(S(=O)(=O)c4ccc(N(C)C)cc4)C[C@H](C)C3)CC2)cc1` [A199, 4-{[(3S)-9-(cyclohexylmethyl)-5-{[4-(4-methoxyphenyl)piperazin-1-yl]sulfonyl}-3-methyl-1,5,9-triazacyclododecan-1-yl]sulfonyl}-N,N-dimethylaniline], for which the IC50 in data set [1] was 132 nM; in data set [3], 162 nM; in data set [4], 80.8 nM; in data set [10] it was 1420 nM. The “Liver Microsome Stability-% Left … (%) Mouse” value in data set [2] is listed as 23.7%. Also, the “Liver Microsome Stability-% Left … (%) Human” value in data set [5] is 8.0%. Besides, the “Liver Microsome Stability-% Left … (%) Monkey” value in data set [6] was 25.5%. In addition, in [7], the “Liver Microsome Stability-% Left … (%) Rat” value is 28.3%. In addition, the concentration for a half-maximal effect (EC50) in data set [8] and in [9] was over 25000 nM throughout.

With `CN(C)c1ccc(S(=O)(=O)N2CCCN(CC3CCCCC3)CCCN(S(=O)(=O)N3CCc4cc(Cl)ccc4C3)C[C@H]3CC[C@@H]32)cc1` [B22, 4-{[(1S,12R)-10-[(6-chloro-1,2,3,4-tetrahydroisoquinolin-2-yl]sulfonyl]-6-(cyclohexylmethyl)-2,6,10-triazabicyclo[10.2.0]tetradecan-2-yl]sulfonyl}-N,N-dimethylaniline], the IC50 in data set [1] is 57.8 nM; in data set [3], 80.5 nM; in [4], 31.3 nM; in [10] it was 519 nM. Further, in data set [2], the “Liver Microsome Stability-% Left … (%) Mouse” value was 8.31%. The “Liver Microsome Stability-% Left … (%) Human” value in [5] is 1.77%. Moreover, in data set [6], the “Liver Microsome Stability-% Left … (%) Monkey” value was determined as 1.77%. Also, in data set [7], the “Liver Microsome Stability-% Left … (%) Rat” value was 10.1%. The EC50 (usually the concentration needed to bring the measured effect to its halfway point) in [8] is over 25000 nM; in [9], 1650 nM.

`C[C@H]1CN(S(=O)(=O)c2ccc(N(C)C)cc2)CCCN([C@H](C)C2CCCCC2)CCCN(S(=O)(=O)N2CCc3cc(Cl)ccc3C2)C1` [A191, 4-{[(3S)-5-[(6-chloro-1,2,3,4-tetrahydroisoquinolin-2-yl)sulfonyl]-9-[(1 R)-1-cyclohexylethyl]-3-methyl-1,5,9-triazacyclododecan-1-yl]sulfonyl}-N,N-dimethylaniline]: the IC50 in [1] turned out to be 117 nM; in data set [3] it was 145 nM; in [4], 57.6 nM; in data set [10], 1100 nM. Moreover, the “Liver Microsome Stability-% Left … (%) Mouse” value in data set [2] was found to be 55.3%. For the same compound, the “Liver Microsome Stability-% Left … (%) Human” value in [5] amounted to 48.6%. Further, the “Liver Microsome Stability-% Left … (%) Monkey” value in data set [6] came to 68.3%. Also, the “Liver Microsome Stability-% Left … (%) Rat” value in data set [7] came out at 65.0%. Besides, the results for the EC50 in data set [8] and in data set [9] were over 25000 nM and 6730 nM, respectively.

For `COc1cc(F)cc(N2[C@H](C)CN(S(=O)(=O)N3CCCN(CC4CCCCC4)CCCN(S(=O)(=O)c4ccc(N(C)C)cc4)C[C@H](C)C3)C[C@H]2C)c1` [A200], the IC50 came to 29.1 nM in data set [1], 27.9 nM in [3], 11.2 nM in data set [4] and 285 nM in data set [10]. Besides, the “Liver Microsome Stability-% Left … (%) Mouse” value in [2] is recorded as 71.9%. The “Liver Microsome Stability-% Left … (%) Human” value in data set [5] was 78.1%. The “Liver Microsome Stability-% Left … (%) Monkey” value in [6] is reported as 73.9%. The “Liver Microsome Stability-% Left … (%) Rat” value in data set [7] is listed as 83.1%. The EC50 in [8] is over 25000 nM; in [9] it was 436 nM.

For `C[C@H]1CN(S(=O)(=O)c2ccc(C(=O)N(C)C)cc2)CCCN(CC2CCCCC2)CCCN(S(=O)(=O)N2CCc3cc(Cl)ccc3C2)C1` [A179, 4-{[(3S)-5-[(6-chloro-1,2,3,4-tetrahydroisoquinolin-2-yl)sulfonyl]-9-(cyclohexylmethyl)-3-methyl-1,5,9-triazacyclododecan-1-yl]sulfonyl}-N,N-dimethylbenzamide], the IC50 in data set [1] stood at 400 nM; in data set [3], 72.6 nM; in data set [4], 270 nM; in [10], 3250 nM. Besides, the “Liver Microsome Stability-% Left … (%) Mouse” value in data set [2] is 0.5%. For the same compound, in data set [5], the “Liver Microsome Stability-% Left … (%) Human” value is on record as 0.04%. Besides, in data set [6], the “Liver Microsome Stability-% Left … (%) Monkey” value came out at 0.26%. Moreover, the “Liver Microsome Stability-% Left … (%) Rat” value in data set [7] stood at 0.18%. The concentration for a half-maximal effect (EC50) is over 25000 nM in [8] and 11300 nM in [9].

On to `COc1ccc([C@@H]2CCCN(S(=O)(=O)N3CCCN(CC4CCCCC4)CCCN(S(=O)(=O)c4ccc(N(C)C)cc4)C[C@H](C)C3)C2)cc1` [A208, 4-{[(3S)-9-(cyclohexylmethyl)-5-{[(3S)-3-(4-methoxyphenyl)piperidin-1-yl]sulfonyl]-3-methyl-1,5,9-triazacyclododecan-1-yl]sulfonyl}-N,N-dimethylaniline], for which the IC50 in [1] is 428 nM; in [3] it was 616 nM; in data set [4] it was 343 nM; in data set [10], over 25000 nM. The “Liver Microsome Stability-% Left … (%) Mouse” value in [2] came to 51.8%. In addition, the “Liver Microsome Stability-% Left … (%) Human” value in data set [5] stood at 23.3%. For the same compound, in data set [6], the “Liver Microsome Stability-% Left … (%) Monkey” value is listed as 37.5%. The “Liver Microsome Stability-% Left … (%) Rat” value in [7] is recorded as 68.9%. In addition, the EC50 in data set [8] and in [9] was over 25000 nM in each case.

Regarding `COc1ccccc1[C@@H]1CCCN(S(=O)(=O)N2CCCN(CC3CCCCC3)CCCN(S(=O)(=O)c3ccc(N(C)C)cc3)C[C@H](C)C2)C1` [A210], the IC50 in data set [1] is 343 nM; in data set [3], 447 nM; in [4], 203 nM; in data set [10], over 25000 nM. In addition, the “Liver Microsome Stability-% Left … (%) Mouse” value in data set [2] turned out to be 76.0%. The “Liver Microsome Stability-% Left … (%) Human” value in data set [5] worked out at 47.4%. Further, in data set [6], the “Liver Microsome Stability-% Left … (%) Monkey” value came to 55.4%. The “Liver Microsome Stability-% Left … (%) Rat” value in data set [7] stood at 54.6%. For the same compound, the EC50 in data set [8] and in [9] was over 25000 nM in each case.
